Data reported in US7259004B1, “Endophytic streptomycetes from higher plants with biological activity” (Montana State University, priority 2002, dated 2007).

How the values were obtained:
[1] = system: Streptococcus pneumoniae ATCC 49619; assay: disk diffusion assay; type: cell-based
[2] = system: Escherichia coli ATCC 25922; assay: disk diffusion assay; type: cell-based; as to diameter of the zone of inhibition, Escherichia coli ATCC 25922: key: R = resistant
[3] = system: Eschericia coli ATCC 10536; assay: disk diffusion assay; details: A3-5-1 10 micrograms; Chloramphenicol 30 micrograms; MHA 35° C.
[4] = system: Neiseseria gonorrhoeae ATCC 49266; assay: disk diffusion assay; details: A3-5-1 10 micrograms; Chloramphenicol 30 micrograms; GCA w/ 1% supplement in 5% CO2
[5] = system: Micrococcus luteus ATCC 9341; assay: disk diffusion assay; details: kakadumycin B at 10 μg; control antibiotic; MHA 35° C.
[6] = system: Protein synthesis in Bacillus subtilis; assay: macromolecular synthesis whole cell assay, [3H]amino acid mixture incorporation; type: cell-based; details: 1×MIC
S. epidermis ATCC 12228 = assay: disk diffusion assay; type: cell-based, Staphylococcus epidermidis; details: for Disk Diffusion, Staphylococcus epidermidis 12228: MHA 35° C.
B. subtilis 1A757 = assay: microbe, parasite or virus in culture; type: cell-based, Bacillus subtilis
[7] = system: Enterococcus faecium ATCC 51559; assay: disk diffusion assay; type: cell-based; details: 10 micrograms per disk; ciprofloxacin 5, vancomycin 30 micrograms per disk; 35° C.
[8] = system: Eschericia coli ATCC 35218; assay: disk diffusion assay; details: A3-5-1 10 micrograms; Chloramphenicol 30 micrograms; MHA 35° C.
[9] = system: Staphylococcus aureus ATCC 29213; assay: disk diffusion assay; type: cell-based; details: for Disk Diffusion, Staphylococcus aureus 29213: MHA 35° C.
[10] = system: Staphylococcus aureus (GISA) ATCC 700699; assay: disk diffusion assay; details: MHA 35° C.
[11] = system: Haemophilus influenzae ATCC 49247; assay: disk diffusion assay; details: A3-5-1 10 micrograms; Chloramphenicol 30 micrograms; HTM 35° C. with 5% CO2
[12] = system: DNA synthesis in Bacillus subtilis; assay: macromolecular synthesis whole cell assay, [3H]thymidine incorporation; type: cell-based; details: 1×MIC
[13] = system: Human Lung Cancer Epithelial A549; assay: CellTiter 96 Aqueous Non-Radioactive Cell Proliferation Assay; type: cell-based; details: 48 hours, Table 7
Protocol: (§1) The munumbicins were then tested against three human cancer cell lines (ATCC) and human primary mammary epithelial cells (HMECs) (Clonetics; Biowhittaker, Walkersville, Md.) using a CellTiter 96® Aqueous Non-Radioactive Cell Proliferation Assay kit from Promega (Madison, Wis.). The cell lines were A-549 (lung epithelial carcinoma, ATCC CCL-185), ME-180 (cervical epithelial epidermoid carcinoma, ATCC HTB-33), and BT-20 (breast epithelial cancer, ATCC HTB-19), and were grown in the media recommended by ATCC. The primary mammary cells were cultured as recommended by the manufacturer in mammary epithelial cell growth media (MEGM®). […] After seeding, the cells were incubated for five hours at 37° C. before addition of the munumbicins. Two-fold serial dilutions of the munumbicins were made in the culture medium, and a volume equal to that of the seeded cells for each dilution was added to three wells of cells. Each plate also contained some wells with cells plus medium only and some wells with medium only. […] The A-549 and ME-180 cells were incubated for 48 hours. […] The plates were incubated at 37° C. for one to four hours, and the OD490 was determined. The OD reading of all wells was corrected for background by subtracting the reading of wells containing medium only. […] Kakadumycin A was tested against three human cancer cell lines (ATCC) and human primary mammary epithelial cells using the procedure described above for the munumbicins. Kadadumycin B was tested against one human cancer cell line.

[14] = system: Human Cervical Cancer Epithelial ME180; assay: as above; type: cell-based; details: 48 hours, Table 7
Protocol: as §1

[15] = system: Salmonella typhimurium ATCC 13311; assay: disk diffusion assay; details: MHA 35° C.
[16] = system: Pseudomonas aeruginosa ATCC 27853; assay: disk diffusion assay; type: cell-based; as to diameter of the zone of inhibition, Pseudomonas aeruginosa ATCC 27853: key: R = resistant
[17] = system: Enterococcus faecalis ATCC 51299; assay: disk diffusion assay; type: cell-based
[18] = system: S. maltophilia ATCC 13637; assay: disk diffusion assay; type: cell-based, Stenotrophomas maltophilia; details: for Disk Diffusion, Stenotrophomas maltophilia 13637: MHA 35° C.
[19] = system: Shigella dysenteriae ATCC 11835; assay: disk diffusion assay; type: cell-based; details: for diameter of the zone of inhibition, Shigella dysenteriae ATCC 11835: 10 micrograms per disk, 35° C.
[20] = system: Enterococcus faecium ATCC 49624; assay: disk diffusion assay; type: cell-based; details: for Disk Diffusion, Enterococcus faecium 49624: MHA 35° C.
[21] = system: Staphylococus aureus (GISA) ATCC 700787; assay: disk diffusion assay; details: A3-5-1 10 micrograms; Chloramphenicol 30 micrograms; MHA 35° C.
[22] = system: Acinetobacter sp. ATCC 49137; assay: disk diffusion assay; type: cell-based
[23] = system: Enterococcus faecalis ATCC 29212; assay: disk diffusion assay; type: cell-based; details: for Disk Diffusion, Enterococcus faecalis 29212: MHA 35° C.
[24] = system: Plasmodium falciparum strain CSC-1 (Honduras); assay: antimalarial assay, 3H-phenylalanine radiobioassay in human red blood cells; details: human red blood cells, 3H-phenylalanine; standard deviation of the mean, three experiments
[25] = system: Candida parasilosis ATCC 22019; assay: disk diffusion assay; type: cell-based, Candida parapsilosis; details: 10 micrograms per disk; 35° C. Also: key: R = resistant.
[26] = system: Candida albicans ATCC 24433; assay: disk diffusion assay; type: cell-based; details: 10 micrograms per disk; 35° C. Also: key: R = resistant.
[27] = system: Neisseria gonnorhea ATCC 49226; assay: disk diffusion assay; type: cell-based; details: 10 micrograms per disk; ciprofloxacin 5, vancomycin 30 micrograms per disk; GC agar with 1% growth supplement with 5% CO2
Bacillus anthracis K8902 = type: cell-based; details: 10 micrograms per disk; ciprofloxacin 5, vancomycin 30 micrograms per disk; 35° C.
Vibrio fischeri PIC 345 = assay: disk diffusion assay; type: cell-based; details: 10 micrograms per disk; ciprofloxacin 5, vancomycin 30 micrograms per disk; 35° C.
Aspergillus fumigatus = assay: microbroth dilution MIC
[28] = system: gram positive bacteria including Staphylococcus species, Streptococcus pneumoniae, Enterococcus species, Bacillus subtilis, and Listeria monocytogenes; assay: activity against Gram positive bacteria (general statements); type: cell-based
[29] = system: Candida albicans ATCC 90028; assay: disk diffusion assay; type: cell-based; details: 10 micrograms per disk; 35° C. Also: key: R = resistant.
[30] = system: Human Breast Cancer Epithelial BT-20; assay: CellTiter 96 Aqueous Non-Radioactive Cell Proliferation Assay; type: cell-based; details: 96-144 hours; Table 7
Protocol: as §1

[31] = system: Human Primary Mammary Epithelial HMEC; assay: as above; type: cell-based; details: 48 hours; Table 7
Protocol: as §1

Sclerotinia sclerotiorum = assay: microbroth dilution MIC, plant associated microorganisms; type: cell-based; details: PD broth, 48 hours at 23° C.
Protocol: (§2) Incubation was for 48 hours at 23° C. A plant pathogenic strain of Pseudomonas syringae was also tested using the same PD broth medium and with concentrations of colony forming units as given above. The organisms were obtained from the Montana State University plant pathogen culture collection administered by Dr. […] The relative activities against plant pathogenic fungi ranged from a few tenths of a microgram up to thirty micrograms. Table 2 provides the results of tests of inhibitory activity of the munumbicins against various plant-pathogenic fungi and one pathogenic bacterium. The data are reported as MIC values in micrograms/ml.

Pythium ultimum = assay: as above; type: cell-based; details: PD broth, 48 hours at 23° C.
Protocol: as §2

Pseudomonas syringae = assay: as above; type: cell-based; details: PD broth
Protocol: as §2

[32] = system: Candida parasdosis ATCC 90018; assay: disk diffusion assay; type: cell-based, Candida parapsilosis; details: 10 micrograms per disk; 35° C. Also: key: R = resistant.
[33] = system: Staphylococcus aureus ATCC 33591 (MRSA); assay: microbroth dilution MIC; type: cell-based; details: methicillin resistant strain; first listing in Table 4
brine shrimp = brine shrimp assays; details: preliminary assays
[34] = system: Enterococcus faecalis ATCC 51299 (VRE); assay: microbroth dilution MIC; type: cell-based; details: resistant to vancomycin; first listing in Table 4
[35] = system: Candida tropicalis ATCC 750; assay: disk diffusion assay; type: cell-based; details: 10 micrograms per disk; 35° C. Also: key: R = resistant.
Cryptococcus neoformans = assay: microbroth dilution MIC
[36] = system: Candida glabrata ATCC 2001; assay: disk diffusion assay; type: cell-based; details: 10 micrograms per disk; 35° C. Also: key: R = resistant.
Candida krusei ATCC 6258 = assay: disk diffusion assay; type: cell-based; details: 10 micrograms per disk; 35° C.
[37] = A3-5-1 10 micrograms, Chloramphenicol 30 micrograms, MHA 35° C.
[38] = A3-5-1 10 micrograms, Chloramphenicol 30 micrograms
[39] = kakadumycin B at 10 μg, control antibiotic
[40] = 10 micrograms per disk, ciprofloxacin 5, vancomycin 30 micrograms per disk, 35° C.

## O=C(N[C@H](CO)[C@H](O)c1ccc([N+](=O)[O-])cc1)C(Cl)Cl [Chloramphenicol, reference compound]
[1]; A3-5-1 10 micrograms, Chloramphenicol 30 micrograms, MHA w/5% dsb 35° C. w/5% CO2
  Disk Diffusion, Streptococcus pneumoniae 49619: 22 mm
[2]; [37]
  Disk Diffusion, Eschericia coli 25922: 29 mm
[2]; kakadumycin B at 10 μg, control antibiotic, MHA 35° C.
  Disk Diffusion, Escherichia coli 25922: 26 mm
[3]
  Disk Diffusion, Eschericia coli 10536: 28 mm
[4]
  Disk Diffusion, Neiseseria gonorrhoeae 49266: 33 mm
[5]
  Disk Diffusion, Micrococcus luteus 9341: 29 mm
[6]; 5 min
  % [3H]amino acid mixture (Protein synthesis) incorporation of that of the untreated culture: 44%
[6]; 10 min
  % [3H]amino acid mixture (Protein synthesis) incorporation of that of the untreated culture: 36%
S. epidermis ATCC 12228; [38]
  Disk Diffusion, Staphylococcus epidermidis 12228: 30 mm
S. epidermis ATCC 12228; [39]
  Disk Diffusion, Staphylococcus epidermidis 12228: 31 mm
B. subtilis 1A757
  1×MIC against Bacillus subtilis: 4 micrograms/ml
[7]
  diameter of the zone of inhibition, Enterococcus faecium ATCC 51559: 24 mm
[8]
  Disk Diffusion, Eschericia coli 35218: R
[9]; [38]
  Disk Diffusion, Staphylococcus aureus 29213: 25 mm
[9]; [39]
  Disk Diffusion, Staphylococcus aureus 29213: 19 mm
[10]; [38]
  Disk Diffusion, Staphylococcus aureus (GISA) 700699: 26 mm
[10]; [39]
  Disk Diffusion, Staphylococcus aureus (GISA) 700699: 29 mm
[11]
  Disk Diffusion, Haemophilus influenzae 49247: 23 mm
[12]; 5 min
  % [3H]thymidine (DNA synthesis) incorporation of that of the untreated culture: 58%
[12]; 10 min
  % [3H]thymidine (DNA synthesis) incorporation of that of the untreated culture: 44%
[13]; Homo sapiens, A549, read-out: IC50 Human Lung Cancer Epithelial A549
  IC50: > 40 µg/mL
[14]; Homo sapiens, ME-180, read-out: IC50 Human Cervical Cancer Epithelial ME180
  IC50: > 40 µg/mL
[15]; [38]
  Disk Diffusion, Salmonella typhimurium 13311: 28 mm
[15]; [39]
  Disk Diffusion, Salmonella typhimurium 13311: 28 mm
[16]; [37]
  Disk Diffusion, Pseudomonas aeruginosa 27853: R
[17]; [37]
  Disk Diffusion, Enterococcus faecalis (VRE) 51299: 8 mm
[18]; [38]
  Disk Diffusion, Stenotrophomas maltophilia 13637: 28 mm
[18]; [39]
  Disk Diffusion, Stenotrophomas maltophilia 13637: 25 mm
[19]
  diameter of the zone of inhibition, Shigella dysenteriae ATCC 11835: 11 mm
[19]; [37]
  Disk Diffusion, Shigella dysenteriae 11835: 40 mm
[20]; [40]
  diameter of the zone of inhibition, Enterococcus faecium ATCC 49624: 24 mm
[20]; [38]
  Disk Diffusion, Enterococcus faecium 49624: 25 mm
[20]; [39]
  Disk Diffusion, Enterococcus faecium 49624: 20 mm
[21]
  Disk Diffusion, Staphylococus aureus (GISA) 700787: 29 mm
[22]; [37]
  Disk Diffusion, Acinetobacter spp. 49137: 8 mm
[23]; [38]
  Disk Diffusion, Enterococcus faecalis 29212: 20 mm
[23]; [39]
  Disk Diffusion, Enterococcus faecalis 29212: 20 mm

## munumbicin A
[1]; 10 micrograms per disk, ciprofloxacin 5, vancomycin 30 micrograms per disk, MHA with 5% dsb. and 5% CO2
  diameter of the zone of inhibition, Streptococcus pneumoniae ATCC 49619: R
[24]
  IC50 Plasmodium falciparum: 0.175 ± 0.106 µg/mL
[2]; 10 micrograms per disk, penicillin G 10 units per disk, 35° C.
  diameter of the zone of inhibition, Escherichia coli ATCC 25922: R
[25]
  diameter of the zone of inhibition, Candida parasilosis ATCC 22019: R
[26]
  diameter of the zone of inhibition, Candida albicans ATCC 24433: R
[27]
  diameter of the zone of inhibition, Neisseria gonnorhea ATCC 49226: 9 mm
Bacillus anthracis K8902
  diameter of the zone of inhibition, Bacillus anthracis K8902: 9.5 mm
Vibrio fischeri PIC 345
  diameter of the zone of inhibition, Vibrio fischeri PIC 345: R
Aspergillus fumigatus
  MIC Aspergillus fumigatus: 20 micrograms/ml
S. epidermis ATCC 12228; 10 micrograms per disk, 35° C.
  diameter of the zone of inhibition, S. epidermis ATCC 12228: 9 mm
[28]
  activity against Gram positive bacteria incl. drug resistant strains (in words): shows activity
[9]; [40]
  diameter of the zone of inhibition, Staphylococcus aureus ATCC 29213: R
[29]
  diameter of the zone of inhibition, Candida albicans ATCC 90028: R
[30]
  IC50 Human Breast Cancer Epithelial BT-20: 0.19 micrograms/ml
[13]
  IC50 Human Lung Cancer Epithelial A549: 1 micrograms/ml
[14]
  IC50 Human Cervical Cancer Epithelial ME180: 0.51 micrograms/ml
[31]
  IC50 Human Primary Mammary Epithelial HMEC: 0.331 micrograms/ml
Sclerotinia sclerotiorum
  MIC Sclerotinia sclerotiorum: 8.0 micrograms/ml
Pythium ultimum
  MIC Pythium ultimum: 2.0 micrograms/ml
Pseudomonas syringae
  MIC Pseudomonas syringae: 15.6 micrograms/ml
[16]; [40]
  diameter of the zone of inhibition, Pseudomonas aeruginosa ATCC 27853: R
[17]; [40]
  diameter of the zone of inhibition, Enterococcus faecalis ATCC 51299: R
[32]
  diameter of the zone of inhibition, Candida parasdosis ATCC 90018: R
[33]
  MIC Staphylococcus aureus ATCC 33591: not active
[18]; 10 micrograms per disk, 35° C.
  diameter of the zone of inhibition, S. maltophilia ATCC 13637: R
Brine shrimp
  LC50 brine shrimp: 3.3 micrograms/ml
[34]
  MIC Enterococcus faecalis ATCC 51299: 8 micrograms/ml
[35]
  diameter of the zone of inhibition, Candida tropicalis ATCC 750: R
[19]
  diameter of the zone of inhibition, Shigella dysenteriae ATCC 11835: R
Cryptococcus neoformans
  MIC Cryptococcus neoformans: 10 micrograms/ml
[22]; 10 micrograms per disk, ciprofloxacin 5, vancomycin 30 micrograms per disk, grown at 30° C.
  diameter of the zone of inhibition, Acinetobacter sp. ATCC 49137: R
[36]
  diameter of the zone of inhibition, Candida glabrata ATCC 2001: R
Candida krusei ATCC 6258
  diameter of the zone of inhibition, Candida krusei ATCC 6258: R
[23]; [40]
  diameter of the zone of inhibition, Enterococcus faecalis ATCC 29212: R
